Consider three molecules from patent US20260201347A1, “ARTIFICIAL BIFUNCTIONAL ENZYME COMPRISING A MYELOPEROXIDASE ACTIVITY AND A GLUCOSE OXIDASE ACTIVITY AND APPLICATIONS THEREOF” (UNIVERSITÉ DE BORDEAUX, priority 2022, published 2026).

For orientation: Km means the concentration of substrate that gives half-maximal velocity. In general, kcat refers to the maximal rate divided by the concentration of active sites. In general, kcat/KM refers to the turnover number divided by the Michaelis constant.

Where “and” joins values, the source holds several entries; their conditions need not be identical. Identical values can stand only once. Like-named read-outs stand apart in the source and are kept apart here.

For assay [1], the target named is T1, RbMPO-LGKRGAGA-GOx chimera (Rhodopirellula baltica myeloperoxidase, SEQ ID NO: 10; linker SEQ ID NO: 5; Penicillium amagasakiens glucose oxidase, SEQ ID NO: 12) (Penicillium amagasakiense, UniProt P81156).
T1 construct: 6His (in the pET21a vector behind the XhoI site); made in house; host or cells: E. coli BL21Star (DE3)
Put plainly: Coupled active sites, HOCl production from glucose, APF assay (Table 9), linker LGKRGAGA
It counts as biochemical. The following applies: trimer; fixed NaCl 20 mM, pH7.5. On the procedure:
(§1) Each experiment was performed in triplicate.
(§2) The activity of the two active sites was then assessed in conjunction to each other (FIG. 1).
(§3) Briefly, the aim was to measure the production of HOCl from glucose and NaCl as respective substrates of the enzymes, using the APF probe. Two types of kinetics were performed: • i) kinetics at various concentrations of glucose and a fixed concentration of NaCl, and • ii) kinetics at various concentration of NaCl and a fixed concentration of glucose.

Assay [2] deals with T2, RbMPO-LEGGEAEA-GOx chimera (Rhodopirellula baltica myeloperoxidase, SEQ ID NO: 10; linker SEQ ID NO: 4; Penicillium amagasakiens glucose oxidase, SEQ ID NO: 12) (Penicillium amagasakiense, UniProt P81156). As to the kind of experiment: Coupled active sites, HOCl production from glucose, APF assay (Table 9), linker LEGGEAEA
T2 sequence (P81156 with tags, fused parts or gaps): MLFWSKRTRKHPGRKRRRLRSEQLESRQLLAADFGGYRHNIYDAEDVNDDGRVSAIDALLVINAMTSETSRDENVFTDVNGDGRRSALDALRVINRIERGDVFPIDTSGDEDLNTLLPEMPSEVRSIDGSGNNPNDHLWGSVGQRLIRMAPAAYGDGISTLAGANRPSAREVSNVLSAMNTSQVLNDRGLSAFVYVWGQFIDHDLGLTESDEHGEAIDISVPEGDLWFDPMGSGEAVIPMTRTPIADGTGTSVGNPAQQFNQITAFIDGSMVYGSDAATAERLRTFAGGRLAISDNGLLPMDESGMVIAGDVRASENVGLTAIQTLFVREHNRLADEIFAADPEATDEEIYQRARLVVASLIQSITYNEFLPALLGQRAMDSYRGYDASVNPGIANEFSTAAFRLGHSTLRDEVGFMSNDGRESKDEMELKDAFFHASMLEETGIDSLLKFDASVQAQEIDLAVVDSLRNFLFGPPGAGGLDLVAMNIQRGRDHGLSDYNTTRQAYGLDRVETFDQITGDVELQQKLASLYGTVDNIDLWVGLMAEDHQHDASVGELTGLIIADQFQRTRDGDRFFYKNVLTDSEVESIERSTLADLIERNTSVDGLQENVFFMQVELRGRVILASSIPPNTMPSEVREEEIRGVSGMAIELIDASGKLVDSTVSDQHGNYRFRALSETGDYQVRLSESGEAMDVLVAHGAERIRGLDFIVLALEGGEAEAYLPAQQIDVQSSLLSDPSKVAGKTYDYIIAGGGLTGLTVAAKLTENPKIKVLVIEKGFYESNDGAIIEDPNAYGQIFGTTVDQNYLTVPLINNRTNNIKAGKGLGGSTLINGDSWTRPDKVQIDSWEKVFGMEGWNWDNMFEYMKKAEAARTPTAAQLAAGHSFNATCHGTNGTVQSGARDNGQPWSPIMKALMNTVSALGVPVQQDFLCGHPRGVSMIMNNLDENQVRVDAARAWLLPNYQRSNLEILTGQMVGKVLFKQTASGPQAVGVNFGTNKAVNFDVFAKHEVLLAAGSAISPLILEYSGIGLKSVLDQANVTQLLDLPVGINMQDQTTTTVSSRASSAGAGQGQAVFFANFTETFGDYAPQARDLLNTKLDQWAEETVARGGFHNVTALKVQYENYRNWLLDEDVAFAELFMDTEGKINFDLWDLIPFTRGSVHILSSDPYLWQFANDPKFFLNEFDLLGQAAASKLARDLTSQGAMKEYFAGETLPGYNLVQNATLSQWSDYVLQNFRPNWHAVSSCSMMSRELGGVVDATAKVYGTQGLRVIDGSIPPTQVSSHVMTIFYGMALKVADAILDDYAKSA
It counts as biochemical. The arrangement: 6His (in the pET21a vector behind the XhoI site); made in house; host or cells: E. coli BL21Star (DE3). As for the experimental part: as §1, §2, §3

For assay [3], the target named is T3, RbMPO-GOx chimera, no linker (Rhodopirellula baltica myeloperoxidase, SEQ ID NO: 10, fused to Penicillium amagasakiens glucose oxidase, SEQ ID NO: 12) (Penicillium amagasakiense, UniProt P81156). Put plainly: Coupled active sites, HOCl production from glucose, APF assay (Table 9), chimera without linker. The arrangement: heme and FAD reconstituted; monomer; GOx mature part (P81156 19-605). The class given is biochemical. Particulars: monomer; fixed NaCl 20 mM, pH7.5. As for the experimental part: as §1, §2, §3
Target sequence in this assay (P81156 19-605, change not shown): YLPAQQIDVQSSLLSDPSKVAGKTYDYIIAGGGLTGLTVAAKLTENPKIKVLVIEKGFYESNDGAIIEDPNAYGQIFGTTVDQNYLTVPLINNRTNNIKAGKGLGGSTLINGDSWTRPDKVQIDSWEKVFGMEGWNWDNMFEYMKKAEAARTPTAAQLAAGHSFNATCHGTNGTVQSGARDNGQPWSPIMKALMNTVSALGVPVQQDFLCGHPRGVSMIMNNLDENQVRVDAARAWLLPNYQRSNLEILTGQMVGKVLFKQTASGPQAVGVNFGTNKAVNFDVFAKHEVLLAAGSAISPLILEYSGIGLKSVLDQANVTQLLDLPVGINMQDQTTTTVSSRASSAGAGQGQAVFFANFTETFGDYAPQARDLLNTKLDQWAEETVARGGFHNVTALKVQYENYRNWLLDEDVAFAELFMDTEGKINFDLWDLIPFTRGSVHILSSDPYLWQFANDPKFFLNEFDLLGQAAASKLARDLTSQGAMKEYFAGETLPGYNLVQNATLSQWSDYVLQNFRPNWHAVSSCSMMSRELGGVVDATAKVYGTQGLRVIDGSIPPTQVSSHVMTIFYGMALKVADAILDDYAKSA

The target of assay [4] is T4, RbMPO-LEKREAEALEKREAEA-GOx chimera (Rhodopirellula baltica myeloperoxidase, SEQ ID NO: 10); linker SEQ ID NO: 6; Penicillium amagasakiens glucose oxidase, SEQ ID (Penicillium amagasakiense, UniProt P81156).
T4 construct: 6His (in the pET21a vector behind the XhoI site); made in house; host or cells: E. coli BL21Star (DE3)
As to the kind of experiment: Coupled active sites, HOCl production from glucose, APF assay (Table 9), linker LEKREAEALEKREAEA
It counts as biochemical. Particulars: dimer/monomer; fixed NaCl 20 mM, pH7.5. On the procedure: as §1, §2, §3

The test system of assay [5] is RbMPO-LGKRGAGA-GOx chimera (Rhodopirellula baltica myeloperoxidase, SEQ ID NO: 10; linker SEQ ID NO: 5; Penicillium amagasakiens glucose oxidase, SEQ ID NO: 12). Particulars: result in words. On the procedure:
(§4) The fluorescent probe aminophenyl fluorescein (APF) (λexcitation=485 nm and λemission=525 nm) was used to measure the HOCl production by the chimera, as a measure of its chlorination activity. Three tests were performed: (1) at different glucose concentrations (0, 1, 2, 3, 4, 5, 6, 8, 10, 15, 20 mM) with fixed concentrations of chimera (1 μM) and NaCl (20 mM); (2) at different NaCl concentrations (0, 10, 20, 50, 100, 250, 500, 750 μM and 1 mM) with fixed concentrations of chimera (1 μM) and glucose (20 mM); (3) at different H2O2 concentrations (0, 0.01, 0.02, 0.05, 0.079, 0.1, 0.25, 0.5, 0.75, 1, 2, 4, 6, 8, 10, 20, 40, 60, 80, 100, 200, 500 mM) with fixed concentrations of chimera (1 μM) and NaCl (20 mM). For all experiments, 10 μM APF was used in each assay with 50 mM NaPi buffer pH7.5 QSP 20 μL (384-well plate). Each experiment was performed in triplicate. A 10-30 min. kinetic was performed for each range value and the increase rate of fluorescence intensity was compared to the standard fluorescein range. The measured fluorescence per second was thus proportional to the amount of fluorescein, which in turn was proportional to the amount of HOCl produced by the chimeras.
(§5) Steady-state kinetic parameters were determined by adjustment of experimental data to the following equations depending on the appearance of saturation curves: […]

Assay [6] addresses T3, RbMPO-GOx chimera, no linker (Rhodopirellula baltica myeloperoxidase, SEQ ID NO: 10, fused to Penicillium amagasakiens glucose oxidase, SEQ ID NO: 12). Particulars: monomer, 20 mM NaCl, pH7.5. As for the experimental part:
as §4, §5
(§6) In order to determine the RbMPO activity of the chimeras, a H2O2 concentration range was performed at a fixed concentration of NaCl. HOCl reacted with APF probe and apparition of fluorescein was monitored.
Target sequence in this assay (P81156 other isoform, or with tags, fused parts or gaps): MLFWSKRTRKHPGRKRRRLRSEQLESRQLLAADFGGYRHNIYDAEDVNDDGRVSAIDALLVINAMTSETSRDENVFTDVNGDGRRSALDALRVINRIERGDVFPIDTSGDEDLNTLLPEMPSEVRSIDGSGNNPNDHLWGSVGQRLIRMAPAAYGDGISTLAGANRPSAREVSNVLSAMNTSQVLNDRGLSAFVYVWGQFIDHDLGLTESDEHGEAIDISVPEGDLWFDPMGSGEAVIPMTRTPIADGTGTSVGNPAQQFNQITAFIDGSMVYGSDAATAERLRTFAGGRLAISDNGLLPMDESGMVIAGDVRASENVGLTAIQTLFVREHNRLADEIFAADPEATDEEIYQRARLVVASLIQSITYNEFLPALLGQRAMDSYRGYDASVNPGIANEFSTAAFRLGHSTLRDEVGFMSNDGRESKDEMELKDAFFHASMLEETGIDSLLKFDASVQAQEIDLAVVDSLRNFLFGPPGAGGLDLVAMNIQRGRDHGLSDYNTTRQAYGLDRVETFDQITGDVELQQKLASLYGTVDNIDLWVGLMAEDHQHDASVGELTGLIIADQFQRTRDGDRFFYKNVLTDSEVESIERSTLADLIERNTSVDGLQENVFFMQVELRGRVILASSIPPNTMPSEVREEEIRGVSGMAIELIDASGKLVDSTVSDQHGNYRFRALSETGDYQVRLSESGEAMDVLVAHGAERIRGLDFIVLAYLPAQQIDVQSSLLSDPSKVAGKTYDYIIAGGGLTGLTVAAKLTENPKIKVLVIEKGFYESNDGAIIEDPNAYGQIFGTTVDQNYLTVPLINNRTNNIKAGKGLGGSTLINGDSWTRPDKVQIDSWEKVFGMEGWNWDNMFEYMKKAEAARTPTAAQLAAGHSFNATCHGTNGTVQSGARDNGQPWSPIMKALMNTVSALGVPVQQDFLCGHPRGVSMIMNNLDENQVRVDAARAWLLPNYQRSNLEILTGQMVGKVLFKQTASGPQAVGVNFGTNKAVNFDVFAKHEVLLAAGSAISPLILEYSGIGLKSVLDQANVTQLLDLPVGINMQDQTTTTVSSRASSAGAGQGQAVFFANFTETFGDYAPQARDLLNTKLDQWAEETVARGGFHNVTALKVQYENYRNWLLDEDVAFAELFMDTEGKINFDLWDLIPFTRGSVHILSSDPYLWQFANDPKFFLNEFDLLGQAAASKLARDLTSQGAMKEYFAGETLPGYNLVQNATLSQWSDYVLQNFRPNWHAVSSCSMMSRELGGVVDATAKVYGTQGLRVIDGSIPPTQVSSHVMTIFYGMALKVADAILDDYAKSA

Assay [7] has as its target RbMPO-GGGGGGGG-GOx chimera (Rhodopirellula baltica myeloperoxidase, SEQ ID NO: 10; linker SEQ ID NO: 9; Penicillium amagasakiens glucose oxidase, SEQ ID NO: 12) (Penicillium amagasakiense, UniProt P81156). The following applies: 20 mM NaCl, pH7.5; for Km: read-out: KM H2O2; for Ki: read-out: Ki H2O2, substrate inhibition. On the procedure:
as §4, §5, §6

In assay [8] the target is T2, RbMPO-LEGGEAEA-GOx chimera (Rhodopirellula baltica myeloperoxidase, SEQ ID NO: 10; linker SEQ ID NO: 4; Penicillium amagasakiens glucose oxidase, SEQ ID NO: 12). On the procedure:
as §4, §5, §6

For assay [9], the target named is RbMPO-LEKREAEA-GOx chimera (Rhodopirellula baltica myeloperoxidase, SEQ ID NO: 10; linker SEQ ID NO: 7; Penicillium amagasakiens glucose oxidase, SEQ ID NO: 12) (Penicillium amagasakiense, UniProt P81156). Particulars: trimer, 20 mM NaCl, pH7.5. As for the experimental part: as §4, §5, §6
RbMPO-LEKREAEA-GOx chimera (Rhodopirellula baltica myeloperoxidase, SEQ ID NO: 10; linker SEQ ID NO: 7; Penicillium amagasakiens glucose oxidase, SEQ ID NO: 12), sequence (P81156 with tags, fused parts or gaps): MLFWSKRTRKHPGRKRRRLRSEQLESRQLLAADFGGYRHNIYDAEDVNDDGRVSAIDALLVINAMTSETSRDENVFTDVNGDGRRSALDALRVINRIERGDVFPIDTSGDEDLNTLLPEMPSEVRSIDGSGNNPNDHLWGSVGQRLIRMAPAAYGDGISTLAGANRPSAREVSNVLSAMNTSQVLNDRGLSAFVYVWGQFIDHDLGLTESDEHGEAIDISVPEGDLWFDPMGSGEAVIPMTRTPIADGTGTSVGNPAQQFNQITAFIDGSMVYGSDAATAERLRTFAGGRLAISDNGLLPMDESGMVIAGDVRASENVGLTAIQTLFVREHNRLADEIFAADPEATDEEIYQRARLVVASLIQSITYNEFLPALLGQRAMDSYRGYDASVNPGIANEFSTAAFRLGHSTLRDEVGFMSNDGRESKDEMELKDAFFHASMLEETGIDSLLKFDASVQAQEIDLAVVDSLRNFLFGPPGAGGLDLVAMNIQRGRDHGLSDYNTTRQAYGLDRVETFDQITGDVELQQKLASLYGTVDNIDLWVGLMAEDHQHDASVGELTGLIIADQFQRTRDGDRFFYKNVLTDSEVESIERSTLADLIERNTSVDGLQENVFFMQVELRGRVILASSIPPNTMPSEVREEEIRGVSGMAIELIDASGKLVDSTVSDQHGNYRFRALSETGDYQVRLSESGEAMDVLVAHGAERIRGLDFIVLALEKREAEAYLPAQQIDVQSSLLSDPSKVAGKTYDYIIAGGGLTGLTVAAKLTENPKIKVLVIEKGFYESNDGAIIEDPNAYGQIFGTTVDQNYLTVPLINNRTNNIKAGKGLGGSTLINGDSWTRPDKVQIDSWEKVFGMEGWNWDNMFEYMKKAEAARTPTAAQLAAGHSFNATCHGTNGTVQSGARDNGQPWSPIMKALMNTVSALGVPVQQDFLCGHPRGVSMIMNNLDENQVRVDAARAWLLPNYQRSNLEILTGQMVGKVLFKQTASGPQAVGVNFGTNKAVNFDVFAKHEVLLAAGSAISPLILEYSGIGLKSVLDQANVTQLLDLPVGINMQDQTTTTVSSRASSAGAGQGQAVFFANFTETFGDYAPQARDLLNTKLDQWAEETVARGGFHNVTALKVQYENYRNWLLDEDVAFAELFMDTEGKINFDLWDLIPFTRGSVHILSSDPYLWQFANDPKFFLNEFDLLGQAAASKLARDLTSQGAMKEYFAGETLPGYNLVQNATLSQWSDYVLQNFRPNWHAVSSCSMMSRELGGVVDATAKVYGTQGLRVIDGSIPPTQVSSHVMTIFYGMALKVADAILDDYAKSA
Assay [10] addresses RbMPO-LEKRPEAEA-GOx chimera (Rhodopirellula baltica myeloperoxidase, SEQ ID NO: 10); linker SEQ ID NO: 8; Penicillium amagasakiens glucose oxidase, SEQ ID NO: 12 (Penicillium amagasakiense, UniProt P81156). The following applies: 20 mM NaCl, pH7.5; for Km: read-out: KM H2O2; for Ki: read-out: Ki H2O2, substrate inhibition. On the procedure:
as §4, §5, §6

For assay [11], the target named is RbMPO-LEKREAEALEKREAEA-GOx chimera (Rhodopirellula baltica myeloperoxidase, SEQ ID NO: 10); linker SEQ ID NO: 6; Penicillium amagasakiens glucose oxidase, SEQ ID (Penicillium amagasakiense, UniProt P81156). Particulars: 20 mM NaCl, pH7.5; for Km: read-out: KM H2O2; for Ki: read-out: Ki H2O2, substrate inhibition.
Procedure: The fluorescent probe aminophenyl fluorescein (APF) (λexcitation=485 nm and λemission=525 nm) was used to measure the HOCl production by the chimera, as a measure of its chlorination activity. […] For all experiments, 10 μM APF was used in each assay with 50 mM NaPi buffer pH7.5 QSP 20 μL (384-well plate). Each experiment was performed in triplicate. A 10-30 min. kinetic was performed for each range value and the increase rate of fluorescence intensity was compared to the standard fluorescein range. The measured fluorescence per second was thus proportional to the amount of fluorescein, which in turn was proportional to the amount of HOCl produced by the chimeras.
The target in assay [12] is T2, RbMPO-LEGGEAEA-GOx chimera (Rhodopirellula baltica myeloperoxidase, SEQ ID NO: 10; linker SEQ ID NO: 4; Penicillium amagasakiens glucose oxidase, SEQ ID NO: 12). The following applies: monomer 1, NaSCN as a substrate, 50 mM glucose, pH6, 37° C. On the procedure:
Initial rate measurements under steady state conditions were made with a BioLogic SFM400 stopped-flow by using a single-mixing mode and Xe/Hg lamp and a TC100/10 cell. One syringe was filled with the chimera and another one with glucose and NaSCN. The concentrations of the chimera and glucose were fixed (300 nM and 50 mM, respectively), and measurement was carried out at 37° C. and at 240 nm. The appearance of −OSCN (hypothiocyanate) was measured at 240 nm at 37° C. in a 50 mM pH6 sodium phosphate buffer. At least five shots of 120 s were performed for each value of the NaSCN substrate range with the following sample period: 20 μs, 20 ms, 20 ms with 2000 points per period. Slopes were calculated from shots average for each concentration and kss (s^−1) were determined using slopes with the following formula:
The molar extinction coefficient of −OSCN is ε−OSCN=[…]. Collecting data were analysed with Origin software and kss values were fitted with Michaëlis-Menten equation.

[13] abbreviates: mixture of oligomers, 15 mM glucose and 500 mM NaCl.
Setting [14] is: read-out: Ki H2O2, substrate inhibition.

Consider `OC[C@H]1OC(O)[C@H](O)[C@@H](O)[C@@H]1O` (stereo partly drawn) [glucose], for which, in assay [1], the kcat/KM glucose came out at 1.1 ± 0.8 M⁻¹ s⁻¹. Further, in assay [2] (setting [13]), the kss result is recorded as “around 10^−3 s^−1” and the “kss/[Glucose]” value was 10^−3 M^−1·s^−1. Besides, the kcat/KM glucose in assay [2] (monomer 2, fixed NaCl 20 mM, pH7.5) came to 2.73 ± 1.5 M⁻¹ s⁻¹. Also, in [3], the Km came out at 3020 ± 770 µM and the kcat came out at 3.09e-05 s⁻¹. In addition, in [4], the kcat/KM glucose is 2.47 ± 1.58 M⁻¹ s⁻¹.
Regarding `OO` [H2O2, hydrogen peroxide], the “inhibition by H2O2” value in assay [5] and in assay [8] (result in words) was “weak inhibition” throughout. The kcat in assay [6] stood at 0.0012 s⁻¹; in [7] (dimer/monomer), 0.00418 s⁻¹; in assay [7] (excluded), 0.0001682 s⁻¹; in [7] (monomer), 0.0001798 s⁻¹; in assay [7] (trimer), 0.0005086 s⁻¹; in assay [8] (monomer 1, 20 mM NaCl, pH7.5), 0.0003086 s⁻¹. Further, the kcat was 0.000587 s⁻¹ in assay [9]; 0.000576 s⁻¹ in assay [10] (dimer/monomer); 0.0001553 s⁻¹ in [10] (excluded); 0.0003 s⁻¹ in [10] (trimer); 0.00374 s⁻¹ in assay [11] (dimer/monomer); 0.0047 s⁻¹ in assay [11] (trimer). Moreover, the kcat/KM was 4.44 ± 3.15 M⁻¹ s⁻¹ in [6]; 363.5 ± 382.3 M⁻¹ s⁻¹ in [7] (dimer/monomer); 1 ± 0.6 M⁻¹ s⁻¹ and 0.998 ± 0.603 M⁻¹ s⁻¹ in assay [7] (excluded); 38.3 ± 23.6 M⁻¹ s⁻¹ in assay [7] (monomer); 177.8 ± 133.1 M⁻¹ s⁻¹ in assay [7] (trimer); 34.2 ± 19.4 M⁻¹ s⁻¹ in [8] (monomer 1, 20 mM NaCl, pH7.5). In addition, the kcat/KM in assay [9] was 13.04 ± 6.51 M⁻¹ s⁻¹; in assay [10] (dimer/monomer), 16.08 ± 17.15 M⁻¹ s⁻¹; in assay [10] (excluded), 6.82 ± 4.27 M⁻¹ s⁻¹; in assay [10] (trimer), 0.426 ± 0.365 M⁻¹ s⁻¹; in [11] (dimer/monomer), 1508 ± 19.4 M⁻¹ s⁻¹ and 1508 ± 107 M⁻¹ s⁻¹; in assay [11] (trimer), 361.5 ± 64.5 M⁻¹ s⁻¹. Besides, the Km in assay [6] (read-out: KM H2O2) is 270 ± 140 µM; in assay [7] (dimer/monomer), 11.5 µM; in [7] (excluded), 168 ± 81 µM; in assay [7] (monomer) it was 4.7 µM; in [7] (trimer) it was 2.86 µM; in assay [8] (read-out: KM H2O2, monomer 1, 20 mM NaCl, pH7.5), 9.02 µM. In addition, the Km in assay [9] (read-out: KM H2O2) came out at 45 ± 15 µM; in assay [10] (dimer/monomer), 36 ± 25 µM; in [10] (excluded) it was 23 ± 11 µM; in assay [10] (trimer), 704 ± 448 µM; in assay [11] (dimer/monomer), 2.48 µM; in assay [11] (trimer), 13 ± 1 µM. In addition, the Ki in assay [6] (setting [14]) is 1.91 ± 0.48 mM; in assay [7] (dimer/monomer), 0.0329 mM; in assay [7] (monomer), 13.1 ± 4.9 mM; in assay [7] (trimer), 5.92 ± 3.22 mM; in assay [8] (read-out: Ki H2O2, monomer 1, 20 mM NaCl, pH7.5, substrate inhibition), 34.9 ± 12.6 mM; in assay [9] (setting [14]), 2.12 ± 1.7 mM. The Ki stood at 6.3 ± 3.33 mM in assay [10] (dimer/monomer); 17.3 ± 10.6 mM in assay [10] (excluded); 35.9 ± 22.2 mM in [10] (trimer); 4.63 ± 1.05 mM in assay [11] (dimer/monomer); 0.597 ± 0.211 mM in assay [11] (trimer). For the same molecule, the “kss/[H2O2]” value in assay [11] (excluded) came to 0.0051 ± 0.00035 M⁻¹ s⁻¹.
Turning to `N#CS` [SCN, thiocyanate], in [12], the kcat was 0.31 s⁻¹ and the kcat/KM stood at 1409 M⁻¹ s⁻¹. Further, the Km in assay [12] (read-out: KM SCN) is 220 µM.
